Test results taken from BindingDB's records for doi:10.1021/jm950641i (Sandoz Research Institute, 1996).

What was measured:
[1] = target: T1, Dimer of Gag-Pol polyprotein [489-587] (Human immunodeficiency virus 1, UniProt P12497); assay: Protease Inhibition Assay; details: pH 6.25; 37 °C
T1 construct: 489-587
Protocol: (§1) Enzymatic activity was measured by following cleavage of the substrate H-Lys-Ala-Arg-Val-Leu-pNph-Glu-Ala-Nle-NH2. Products of the cleavage reaction were quantified by HPLC detection.

[2] = target: T2, Dimer of Gag-Pol polyprotein [514-612] (Human immunodeficiency virus 2, UniProt P04584); assay: Protease Inhibition Assay; details: pH 4.7; 37 °C
T2 construct: 514-612
T2 sequence (P04584 whole entry): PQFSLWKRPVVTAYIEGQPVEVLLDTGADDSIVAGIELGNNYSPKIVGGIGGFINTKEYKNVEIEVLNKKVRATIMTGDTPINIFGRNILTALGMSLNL
Protocol: as §1

| Compound | Ki [1] | Ki [2] |
| --- | --- | --- |
| CC(C)C1NC(=O)[C@@H](C(O)[C@H](Cc2ccccc2)NC(=O)[C@@H](NC(=O)CSc2nncn2C)C(C)(C)C)NCc2ccc(cc2)OCCOCCNC1=O (stereo partly drawn) [(2S)-N-[(1S,2S)-1-[(10R,13R)-9,12-dioxo-10-(propan-2-yl)-2,5-dioxa-8,11,14-triazabicyclo[14.2.2]icosa-1(18),16,19-trien-13-yl]-1-hydroxy-3-phenylpropan-2-yl]-3,3-dimethyl-2-{2-[(4-methyl-4H-1,2,4-triazol-3-yl)sulfanyl]acetamido}butanamide] | 11.1 nM |  |
| CC(C)C1NC(=O)[C@@H](C(O)[C@H](Cc2ccccc2)NC(=O)OC2CCOC2)NCc2ccc(cc2)OCCOCCNC1=O (stereo partly drawn) [(3R)-oxolan-3-yl N-[(1S,2S)-1-[(10R,13R)-9,12-dioxo-10-(propan-2-yl)-2,5-dioxa-8,11,14-triazabicyclo[14.2.2]icosa-1(18),16,19-trien-13-yl]-1-hydroxy-3-phenylpropan-2-yl]carbamate] | 8.2 nM |  |
| CC(C)C1NC(=O)[C@@H](C(O)[C@H](Cc2ccccc2)NC(=O)[C@@H](NC(=O)OCc2ccccc2)C(C)C)NCc2ccc(cc2)OCCCCNC1=O (stereo partly drawn) [benzyl N-[(1S)-1-{[(1S,2S)-1-[(9R,12R)-8,11-dioxo-9-(propan-2-yl)-2-oxa-7,10,13-triazabicyclo[13.2.2]nonadeca-1(17),15,18-trien-12-yl]-1-hydroxy-3-phenylpropan-2-yl]carbamoyl}-2-methylpropyl]carbamate] | 6.6 nM |  |
| CC(C)C1NC(=O)[C@@H](C(O)[C@H](Cc2ccccc2)NC(=O)[C@@H](NC(=O)OCc2ccccc2)C(C)(C)C)NCc2ccc(cc2)OCCOCCNC1=O (stereo partly drawn) [benzyl N-[(1S)-1-{[(1S,2S)-1-[(10R,13R)-9,12-dioxo-10-(propan-2-yl)-2,5-dioxa-8,11,14-triazabicyclo[14.2.2]icosa-1(18),16,19-trien-13-yl]-1-hydroxy-3-phenylpropan-2-yl]carbamoyl}-2,2-dimethylpropyl]carbamate] | 8 nM | 16 nM |
| CC(C)C1NC(=O)[C@@H](C(O)[C@H](Cc2ccccc2)NC(=O)[C@@H](NC(=O)OCc2ccccc2)C(C)C)NCc2ccc(cc2)OCCOCCNC1=O (stereo partly drawn) [benzyl N-[(1S)-1-{[(1S,2S)-1-[(10R,13R)-9,12-dioxo-10-(propan-2-yl)-2,5-dioxa-8,11,14-triazabicyclo[14.2.2]icosa-1(18),16,19-trien-13-yl]-1-hydroxy-3-phenylpropan-2-yl]carbamoyl}-2-methylpropyl]carbamate] | 7.9 nM | 19 nM |
| CC(C)C1NC(=O)[C@@H](C(O)[C@H](Cc2ccccc2)NC(=O)[C@@H](NC(=O)OCc2ccccc2)C(C)C)NCc2ccc(cc2)OCCOCCOCCNC1=O (stereo partly drawn) [benzyl N-[(1S)-1-{[(1S,2S)-1-[(13R,16R)-12,15-dioxo-13-(propan-2-yl)-2,5,8-trioxa-11,14,17-triazabicyclo[17.2.2]tricosa-1(21),19,22-trien-16-yl]-1-hydroxy-3-phenylpropan-2-yl]carbamoyl}-2-methylpropyl]carbamate] | 6.9 nM | 27 nM |
| CC(C)C1NC(=O)[C@@H](C(O)[C@H](Cc2ccccc2)NC(=O)[C@@H](NC(=O)OCc2ccccc2)C(C)C)NCc2cccc(c2)OCCOCCOCCNC1=O (stereo partly drawn) [benzyl N-[(1S)-1-{[(1S,2S)-1-[(13R,16R)-12,15-dioxo-13-(propan-2-yl)-2,5,8-trioxa-11,14,17-triazabicyclo[17.3.1]tricosa-1(22),19(23),20-trien-16-yl]-1-hydroxy-3-phenylpropan-2-yl]carbamoyl}-2-methylpropyl]carbamate] | 7.7 nM |  |
| COc1ccc(CN[C@@H](C(=O)N[C@H]2c3ccccc3CC2O)C(O)[C@H](Cc2ccccc2)NC(=O)[C@@H](NC(=O)OCc2ccccc2)C(C)(C)C)cc1 (stereo partly drawn) [benzyl N-[(1S)-1-{[(2S,3S,4R)-3-hydroxy-4-{[(1S,2S)-2-hydroxy-2,3-dihydro-1H-inden-1-yl]carbamoyl}-4-{[(4-methoxyphenyl)methyl]amino}-1-phenylbutan-2-yl]carbamoyl}-2,2-dimethylpropyl]carbamate] | 9.5 nM | 50 nM |
| COc1ccc(CN[C@@H](C(=O)NC(C(=O)NCc2nc3ccccc3[nH]2)C(C)C)C(O)[C@H](Cc2ccccc2)NC(=O)[C@@H](NC(=O)OCc2ccccc2)C(C)C)cc1 (stereo partly drawn) [benzyl N-[(1S)-1-{[(2S,3S,4R)-4-{[(1R)-1-[(1H-1,3-benzodiazol-2-ylmethyl)carbamoyl]-2-methylpropyl]carbamoyl}-3-hydroxy-4-{[(4-methoxyphenyl)methyl]amino}-1-phenylbutan-2-yl]carbamoyl}-2-methylpropyl]carbamate] | 3.4 nM |  |
| CC(C)C1NC(=O)[C@@H](C(O)[C@H](Cc2ccccc2)NC(=O)OC(C)(C)C)NCc2ccc(cc2)OCCCCNC1=O (stereo partly drawn) [tert-butyl N-[(1S,2S)-1-[(9R,12R)-8,11-dioxo-9-(propan-2-yl)-2-oxa-7,10,13-triazabicyclo[13.2.2]nonadeca-1(17),15,18-trien-12-yl]-1-hydroxy-3-phenylpropan-2-yl]carbamate] | 17 nM |  |
| CC(C)C1NC(=O)[C@@H](C(O)[C@H](Cc2ccccc2)NC(=O)OC(C)(C)C)NCc2ccc(cc2)OCCOCCNC1=O (stereo partly drawn) [tert-butyl N-[(1S,2S)-1-[(10R,13R)-9,12-dioxo-10-(propan-2-yl)-2,5-dioxa-8,11,14-triazabicyclo[14.2.2]icosa-1(18),16,19-trien-13-yl]-1-hydroxy-3-phenylpropan-2-yl]carbamate] | 14 nM |  |
| CC(C)C1NC(=O)[C@@H](C(O)[C@H](Cc2ccccc2)NC(=O)OC(C)(C)C)NCc2cccc(c2)OCCOCCOCCNC1=O (stereo partly drawn) [tert-butyl N-[(1S,2S)-1-[(13R,16R)-12,15-dioxo-13-(propan-2-yl)-2,5,8-trioxa-11,14,17-triazabicyclo[17.3.1]tricosa-1(22),19(23),20-trien-16-yl]-1-hydroxy-3-phenylpropan-2-yl]carbamate] | 208 nM |  |
| CC(C)C1NC(=O)[C@@H](C(O)[C@H](Cc2ccccc2)NC(=O)OC(C)(C)C)NCc2ccc(cc2)OCCOCCOCCOCCNC1=O (stereo partly drawn) [tert-butyl N-[(1S,2S)-1-[(16R,19R)-15,18-dioxo-16-(propan-2-yl)-2,5,8,11-tetraoxa-14,17,20-triazabicyclo[20.2.2]hexacosa-1(24),22,25-trien-19-yl]-1-hydroxy-3-phenylpropan-2-yl]carbamate] | 23.2 nM |  |
